Measured values as given in US6461841B2, “L-amino acid oxidase from Rhodococcus species” (Degussa AG, priority 2000, dated 2002).
Read-outs that look alike come from different tables or passages of the source.

Legend:
[1] = biological target: T1, L-amino acid oxidase from Rhodococcus opacus (Rhodococcus opacus, UniProt Q8VPD4); test: Substrate spectrum and stereospecificity of L-amino acid oxidase; type: biochemical; conditions: relative to 10 mM L-alanine
T1 construct: made in house; host or cells: Rhodococcus opacus DSM 43250, the natural producer; purified from crude cell extract, not recombinant
T1 sequence (Q8VPD4 46-534): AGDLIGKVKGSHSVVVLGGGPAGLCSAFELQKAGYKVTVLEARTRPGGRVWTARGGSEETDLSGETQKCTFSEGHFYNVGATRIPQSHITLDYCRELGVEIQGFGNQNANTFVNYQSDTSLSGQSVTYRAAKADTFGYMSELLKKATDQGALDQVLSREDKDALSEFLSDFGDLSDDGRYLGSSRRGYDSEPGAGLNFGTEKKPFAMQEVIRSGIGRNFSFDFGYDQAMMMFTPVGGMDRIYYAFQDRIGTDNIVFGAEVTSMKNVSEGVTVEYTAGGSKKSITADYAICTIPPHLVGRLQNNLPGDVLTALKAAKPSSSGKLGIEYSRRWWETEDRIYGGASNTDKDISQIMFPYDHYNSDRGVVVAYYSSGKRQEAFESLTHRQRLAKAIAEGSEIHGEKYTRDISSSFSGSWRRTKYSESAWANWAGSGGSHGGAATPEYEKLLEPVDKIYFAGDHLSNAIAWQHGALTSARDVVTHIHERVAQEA
Protocol: The transformation of a large number of natural and non-natural amino acids was investigated. The following test batch (1 mL) was used for this purpose: 10 mM enantiomer-pure amino acid (or 20 mM D,L-amino acid); 0.2 M TEA-HCl buffer, pH 7.6; 0.2 mg/mL odianisidine; 10 U/mL POX; L-amino acid oxidase solution in limiting amounts. The activity measurements were carried out by photometry at 436 nm and 30° C.
The stereospecificity of the L-amino acid oxidase was measured for several substrates (e.g. alanine, asparagine, glutamine, phenylalanine, methionine, leucine, ornithine, lysine, histidine), in that both the D-form and the L-form, as well as the racemate were used. In this connection, D-amino acids are not transformed in any case. The activities with the racemates were as high, for all the substrates, as for the pure L-amino acids in each instance. […] In the determination of the substrate spectrum, it is therefore also possible to use the D,L-form.
The measured activity values were indicated as relative values with reference to the activity with 10 mM L-alanine (Table 4). Weak activity was indicated with a + in the table.

[2] = biological target: T1, L-amino acid oxidase from Rhodococcus opacus; test: biochemical
Protocol: To determine the kinetic constants, the reaction speed of oxidation was studied at different concentrations of amino acid and for different L-amino acids, under the following conditions (tests in microtiter plates):
0.2 M TEA-HCl buffer, pH 7.6; 0.2 mg/mL o-dianisidine; 25 U/mL POX; L-amino acid oxidase in limiting amounts; varying concentrations of the different L-amino acids. Activity measurement was conducted by photometry at 450 nm and 30° C.
The kinetic constants Vmax.

[3] = biological target: T1, L-amino acid oxidase from Rhodococcus opacus; test: Transformation of D,L-amino acid with L-amino acid oxidase, HPLC analysis of L- and D-form; type: biochemical; conditions: for concentration of the D-form during the reaction: 7 mM D,L-amino acid
Protocol: […] The total volume of the batch was 1 mL. Samples (50 μL) were taken at regular intervals, and analyzed for the content of L- and D-phenylalanine, using HPLC. Directly after being taken, the samples were heated to 95° C. for 3 min, and then the precipitated protein was centrifuged off. 20 μL of the diluted top fraction were put into 180 μL 100 mM sodium borate buffer, pH 10.4, and mixed with 20 μL of a derivativization reagent (260 mM isobuturyl-L-cysteine (IBLC) and 170 mM ophthaldialdehyde (OPA) in 100 mM sodium borate buffer, pH 10.4).
Separation conditions of HPLC:
Column: RP-18, 250×4 mm, 5 Am, Kromasil (Phenomenex, Aschaffenburg, Germany)
Detection: fluorescence, Ex. 340 nm, Em. 440 nm
Flow agent A: 23 mM sodium acetate buffer; pH 6.5 adjusted with acetic acid
Flow agent B: acetonitrile:water (10:1.5)

[4] = 10 mM enantiomer-pure amino acid, pH 7.6, 30° C., 436 nm
[5] = marked #: used in racemic form (20 mM D,L-amino acid)
[6] = marked *: poor solubility, 100 μL top fraction of saturated L-amino acid solution per batch
[7] = 0.2 M TEA-HCl buffer, pH 7.6, 30° C., constant of the amino acid as substrate, read-out: Ki

Row | SMILES | Rel. activity (%) [1, 4] [%] | other results
1 | N[C@@H](Cc1ccc(Cl)cc1)C(=O)O (racemic) [4-chlorophenylalanine] | 9 | 
2 | N[C@@H](Cc1ccc(F)cc1)C(=O)O (racemic) [4-fluorophenylalanine] |  | Rel. activity (%) [1, 5]: 25%
3 | N[C@@H](CCc1ccccc1)C(=O)O (racemic) [Homophenylalanine] |  | Rel. activity (%) ([1]; marked *#: racemic form, low concentration (top fraction of saturated solution)): 50%
4 | CCCC[C@H](N)C(=O)O (racemic) [Norleucine] |  | Rel. activity (%) [1, 5]: 73%
5 | COC[C@H](N)C(=O)O (racemic) [O-methyl serine] |  | Rel. activity (%) [1, 5]: 99%
6 | N[C@H](C(=O)O)C(O)c1ccccc1 (mixture of isomers) [β-Phenyl serine] |  | Rel. activity (%) [1, 5]: 8%
7 | NC1CCOC1=O (stereo not drawn) [2-amino-4-butyrolactone] | 66 | 
8 | CC(C)(C)CCC(N)C(=O)O (stereo not drawn) [2-amino-5,5-dimethyl hexanic acid] | 44 | 
9 | N[C@@H](Cc1ccccc1Cl)C(=O)O [2-chlorophenylalanine] | 24 | 
10 | NCC(N)C(=O)O (stereo not drawn) [2.3-diaminopropionic acid] | 71 | 
11 | NCCC(N)C(=O)O (stereo not drawn) [2.4-diaminobutyric acid] | 100 | 
12 | N[C@@H](Cc1cccc2ccccc12)C(=O)O [3-(1-naphthyl)alanine] |  | Rel. activity (%) [1, 6]: 109%
13 | Nc1ccc(C[C@H](N)C(=O)O)cc1 [4-aminophenylalanine] | 16 | 
14 | N[C@@H](Cc1ccc([N+](=O)[O-])cc1)C(=O)O [4-nitrophenylalanine] |  | Rel. activity (%) [1, 6]: 30%
15 | C[C@H](N)C(=O)O [Alanine, L-alanine] | 100 | 
16 | N=C(N)NCCC[C@H](N)C(=O)O [Arginine] | 70 | Ki [2]: 5.42 mM
17 | NC(=O)C[C@H](N)C(=O)O [Asparagine] | 97 | 
18 | NC(=O)NCCC[C@H](N)C(=O)O [Citrulline] | 74 | Ki [2, 7]: 20.6 mM

Row | SMILES | Rel. activity (%) [1, 4] [%] | other results
19 | N[C@@H](CSSC[C@H](N)C(=O)O)C(=O)O [Cystine] |  | Rel. activity (%) [1, 6]: 104%
20 | CC(C)C[C@@H](N)C(=O)O [D-leucine] |  | concentration of the D-form during the reaction ([3]; 35 μg/mL enzyme, pH 7.6): remains constant; ee value ([3]; after a reaction time of 20 min): ≥ 99.2%
21 | N[C@H](Cc1ccccc1)C(=O)O [D-phenylalanine] |  | concentration of the D-form during the reaction ([3]; 35 μg/mL enzyme, pH 7.6): remains constant; ee value ([3]; after a reaction time of 30 min): ≥ 99.2%; ee value ([3]; after a reaction time of 180 min): ≥ 99.5%
22 | NC(=O)CC[C@H](N)C(=O)O [Glutamine] | 52 | 
23 | N[C@@H](Cc1c[nH]cn1)C(=O)O [Histidine] | 36 | 
24 | NC1CCSC1=O (stereo not drawn) [Homocysteine thiolactone] | 23 | 
25 | CC[C@H](C)[C@H](N)C(=O)O [Isoleucine] | 45 | 
26 | CC(C)C[C@H](N)C(=O)O [Leucine, L-leucine] | 68 | Ki [2, 7]: 5.69 mM; transformation of the L-form ([3]; 7 mM D,L-leucine, during the first 20 min): almost completely transformed
27 | NCCCC[C@H](N)C(=O)O [Lysine, L-lysine] | 55 | Ki [2]: 63.7 mM
28 | CSCC[C@H](N)C(=O)O [Methionine] | 72 | Ki [2]: 6.84 mM; Vmax (U/mg) ([2]; 0.2 M TEA-HCl buffer, pH 7.6, 30° C.): 6.43 U/mg
29 | CC(=O)NCCCC[C@H](N)C(=O)O [Nε-acetyllysine] | 46 | 
30 | NCCC[C@H](N)C(=O)O [Ornithine] | 117 | Ki [2]: 12.5 mM
31 | N[C@@H](Cc1ccccc1)C(=O)O [Phenylalanine, L-phenylalanine] | 53 | Ki [2, 7]: 5.29 mM; concentration in the course of the reaction ([3]; 7 mM D,L-phenylalanine, 35 μg/mL enzyme, pH 7.6, originally 3.5 mM): < 0.01 mM
32 | N[C@@H](CO)C(=O)O [Serine] | 72 | 
33 | N[C@@H](Cc1c[nH]c2ccccc12)C(=O)O [Tryptophan] | 12 | 
34 | N[C@@H](Cc1ccc(O)cc1)C(=O)O [Tyrosine] |  | Rel. activity (%) [1, 6]: 54%
35 | CC(C)[C@H](N)C(=O)O [Valine, L-valine] | 32 | 
